In patent publication US10681909B2, “Herbicidal triazoles” (FMC Corporation, priority 2014, dated 2020):

Experiments:
Conditions in all cases: scale 0 to 100
corn = assay: Test E preemergence; format: in vivo, Zea mays
Excerpt: (§1) Seeds of plant species selected from corn (Zea mays), soybean (Glycine max), lambsquarters (Chenopodium album), poinsettia, wild (wild poinsettia, Euphorbia heterophylla), pigweed, palmer (palmer pigweed, Amaranthus palmeri), waterhemp (common waterhemp, Amaranthus rudis), surinam grass (Brachiaria decumbens), crabgrass, large (large crabgrass, Digitaria sanguinalis), crabgrass, Brazilian (Brazilian crabgrass, Digitaria horizontalis), panicum, fall (fall panicum, Panicum dichotomiflorum), foxtail, giant (giant foxtail, Setaria faberii), foxtail, green (green foxtail, Setaria viridis), goosegrass (Eleusine indica), johnsongrass (Sorghum halepense), ragweed (common ragweed, Ambrosia elatior), barnyardgrass (Echinochloa crus-galli), sandbur (southern sandbur, Cenchrus echinatus), arrowleaf sida (Sida rhombifolia), ryegrass, Italian (Italian ryegrass, Lolium multiflorum), dayflower, VA (Virginia dayflower, Commelina virginica), field bindweed (Convolvulus arvensis), cocklebur (common cocklebur, Xanthium strumarium), morningglory (Ipomoea coccinea), nightshade (eastern black nightshade, Solanum ptycanthum), kochia (Kochia scoparia), nutsedge, yellow (yellow nutsedge, Cyperus esculentus), smartweed (ladysthumb smartweed, Polygonum persicaria), velvetleaf (Abutilon theophrasti), horseweed (Conyza canadensis), and beggarticks (hairy beggarticks, Bidens pilosa), were planted into a silt loam soil and treated preemergence with test chemicals formulated in a non-phytotoxic solvent mixture which included a surfactant.
(§2) At the same time, plants from these crop and weed species and also waterhemp_RES1, (ALS & Triazine resistant common waterhemp, Amaranthus rudis), and waterhemp_RES2, (ALS & HPPD resistant common waterhemp, Amaranthus rudis) were planted in pots containing Sunshine Redi-Earth® planting medium comprising spaghnum peat moss, vermiculite, starter nutrients and dolomitic limestone were treated with postemergence applications of test chemicals formulated in the same manner. Plants ranged in height from 2 to 18 cm for postemergence treatments (1- to 4-leaf stage). Treated plants and controls were maintained in a greenhouse for 14 to 21 d, after which time all species were compared to controls and visually evaluated. Plant response ratings, summarized in Table E, are based on a scale of 0 to 100 where 0 is no effect and 100 is complete control. A dash (-) response means no test result.

soybean [1] = assay: Test E preemergence; format: in vivo, Glycine max
Excerpt: as §1, §2

lambsquarters = assay: Test E preemergence; format: in vivo, Chenopodium album
Excerpt: as §1, §2

pigweed, palmer = assay: Test E preemergence; format: in vivo, Amaranthus palmeri
Excerpt: as §1, §2

crabgrass, large = assay: Test E preemergence; format: in vivo, Digitaria sanguinalis
Excerpt: as §1, §2

panicum, fall = assay: Test E preemergence; format: in vivo, Panicum dichotomiflorum
Excerpt: as §1, §2

foxtail, green = assay: Test E preemergence; format: in vivo, Setaria viridis
Excerpt: as §1, §2

goosegrass = assay: Test E preemergence; format: in vivo, Eleusine indica
Excerpt: as §1, §2

johnsongrass = assay: Test E preemergence; format: in vivo, Sorghum halepense
Excerpt: as §1, §2

ragweed [2] = assay: Test E preemergence; format: in vivo, Ambrosia elatior
Excerpt: as §1, §2

arrowleaf sida [3] = assay: Test E preemergence; format: in vivo, Sida rhombifolia
Excerpt: as §1, §2

ryegrass, Italian = assay: Test E preemergence; format: in vivo, Lolium multiflorum
Excerpt: as §1, §2

dayflower, VA [4] = assay: Test E preemergence; format: in vivo, Commelina virginica
Excerpt: as §1, §2

nightshade = assay: Test E preemergence; format: in vivo, Solanum ptycanthum
Excerpt: as §1, §2

nutsedge, yellow = assay: Test E preemergence; format: in vivo, Cyperus esculentus
Excerpt: as §1, §2

velvetleaf = assay: Test E preemergence; format: in vivo, Abutilon theophrasti
Excerpt: as §1, §2

soybean [5] = assay: Test E postemergence; format: in vivo, Glycine max
Excerpt: as §1, §2

arrowleaf sida [6] = assay: Test E postemergence; format: in vivo, Sida rhombifolia
Excerpt: as §1, §2

dayflower, VA [7] = assay: Test E postemergence; format: in vivo, Commelina virginica
Excerpt: as §1, §2

beggarticks = assay: Test E postemergence; format: in vivo, Bidens pilosa
Excerpt: as §1, §2

ragweed [8] = assay: Test E postemergence; format: in vivo, Ambrosia elatior
Excerpt: as §1, §2

## CCc1nc(-c2ccc(C(F)(F)F)cc2)nn1Cc1ccnc(C(F)(F)F)c1 [Compound 1, 4-[[5-ethyl-3-[4-(trifluoromethyl)phenyl]-1H-1,2,4-triazol-1-yl]methyl]-2-(trifluoromethyl)pyridine]
corn; 16 g ai/ha
  Plant response rating: 0
corn; 31 g ai/ha
  Plant response rating: 0
corn; 62 g ai/ha
  Plant response rating: 10
corn; 125 g ai/ha
  Plant response rating: 25
corn; 250 g ai/ha
  Plant response rating: 35
Soybean [1]; 16 g ai/ha
  Plant response rating: 0
Soybean [1]; 31 g ai/ha
  Plant response rating: 0
Soybean [1]; 62 g ai/ha
  Plant response rating: 0
Soybean [1]; 125 g ai/ha
  Plant response rating: 10
Soybean [1]; 250 g ai/ha
  Plant response rating: 35
lambsquarters; 16 g ai/ha
  Plant response rating: 10
lambsquarters; 31 g ai/ha
  Plant response rating: 65
lambsquarters; 62 g ai/ha
  Plant response rating: 90
lambsquarters; 125 g ai/ha
  Plant response rating: 95
lambsquarters; 250 g ai/ha
  Plant response rating: 95
pigweed, palmer; 16 g ai/ha
  Plant response rating: 80
pigweed, palmer; 62 g ai/ha
  Plant response rating: 98
pigweed, palmer; 125 g ai/ha
  Plant response rating: 100
pigweed, palmer; 250 g ai/ha
  Plant response rating: 100
crabgrass, large; 16 g ai/ha
  Plant response rating: 60
crabgrass, large; 31 g ai/ha
  Plant response rating: 75
crabgrass, large; 62 g ai/ha
  Plant response rating: 80
crabgrass, large; 125 g ai/ha
  Plant response rating: 95
crabgrass, large; 250 g ai/ha
  Plant response rating: 100
panicum, fall; 16 g ai/ha
  Plant response rating: 15
panicum, fall; 31 g ai/ha
  Plant response rating: 60
panicum, fall; 62 g ai/ha
  Plant response rating: 80
panicum, fall; 125 g ai/ha
  Plant response rating: 100
panicum, fall; 250 g ai/ha
  Plant response rating: 100
foxtail, green; 16 g ai/ha
  Plant response rating: 20
foxtail, green; 31 g ai/ha
  Plant response rating: 50
foxtail, green; 62 g ai/ha
  Plant response rating: 50
foxtail, green; 125 g ai/ha
  Plant response rating: 80
foxtail, green; 250 g ai/ha
  Plant response rating: 100
goosegrass; 16 g ai/ha
  Plant response rating: 50
goosegrass; 31 g ai/ha
  Plant response rating: 60
goosegrass; 62 g ai/ha
  Plant response rating: 60
goosegrass; 125 g ai/ha
  Plant response rating: 75
goosegrass; 250 g ai/ha
  Plant response rating: 100
johnsongrass; 16 g ai/ha
  Plant response rating: 10
johnsongrass; 31 g ai/ha
  Plant response rating: 15
johnsongrass; 62 g ai/ha
  Plant response rating: 40
johnsongrass; 125 g ai/ha
  Plant response rating: 50
johnsongrass; 250 g ai/ha
  Plant response rating: 60
Ragweed [2]; 16 g ai/ha
  Plant response rating: 0
Ragweed [2]; 31 g ai/ha
  Plant response rating: 10
Ragweed [2]; 62 g ai/ha
  Plant response rating: 35
Ragweed [2]; 125 g ai/ha
  Plant response rating: 65
Ragweed [2]; 250 g ai/ha
  Plant response rating: 75
Arrowleaf sida [3]; 16 g ai/ha
  Plant response rating: 0
Arrowleaf sida [3]; 31 g ai/ha
  Plant response rating: 10
Arrowleaf sida [3]; 62 g ai/ha
  Plant response rating: 20
Arrowleaf sida [3]; 125 g ai/ha
  Plant response rating: 20
Arrowleaf sida [3]; 250 g ai/ha
  Plant response rating: 50
ryegrass, Italian; 16 g ai/ha
  Plant response rating: 0
ryegrass, Italian; 31 g ai/ha
  Plant response rating: 0
ryegrass, Italian; 62 g ai/ha
  Plant response rating: 20
ryegrass, Italian; 125 g ai/ha
  Plant response rating: 20
ryegrass, Italian; 250 g ai/ha
  Plant response rating: 40
dayflower, VA [4]; 16 g ai/ha
  Plant response rating: 5
dayflower, VA [4]; 31 g ai/ha
  Plant response rating: 15
dayflower, VA [4]; 62 g ai/ha
  Plant response rating: 25
dayflower, VA [4]; 125 g ai/ha
  Plant response rating: 65
dayflower, VA [4]; 250 g ai/ha
  Plant response rating: 80
nightshade; 16 g ai/ha
  Plant response rating: 50
nightshade; 62 g ai/ha
  Plant response rating: 75
nightshade; 125 g ai/ha
  Plant response rating: 90
nightshade; 250 g ai/ha
  Plant response rating: 95
nutsedge, yellow; 16 g ai/ha
  Plant response rating: 0
nutsedge, yellow; 31 g ai/ha
  Plant response rating: 0
nutsedge, yellow; 62 g ai/ha
  Plant response rating: 0
nutsedge, yellow; 125 g ai/ha
  Plant response rating: 0
nutsedge, yellow; 250 g ai/ha
  Plant response rating: 10
velvetleaf; 16 g ai/ha
  Plant response rating: 0
velvetleaf; 31 g ai/ha
  Plant response rating: 10
velvetleaf; 62 g ai/ha
  Plant response rating: 10
velvetleaf; 125 g ai/ha
  Plant response rating: 30
velvetleaf; 250 g ai/ha
  Plant response rating: 50
Soybean [5]; 16 g ai/ha
  Plant response rating: 40
Soybean [5]; 31 g ai/ha
  Plant response rating: 40
Soybean [5]; 62 g ai/ha
  Plant response rating: 50
Soybean [5]; 125 g ai/ha
  Plant response rating: 50
Soybean [5]; 250 g ai/ha
  Plant response rating: 65
Arrowleaf sida [6]; 16 g ai/ha
  Plant response rating: 30
Arrowleaf sida [6]; 31 g ai/ha
  Plant response rating: 40
Arrowleaf sida [6]; 62 g ai/ha
  Plant response rating: 50
Arrowleaf sida [6]; 125 g ai/ha
  Plant response rating: 70
Arrowleaf sida [6]; 250 g ai/ha
  Plant response rating: 85
dayflower, VA [7]; 16 g ai/ha
  Plant response rating: 20
dayflower, VA [7]; 31 g ai/ha
  Plant response rating: 25
dayflower, VA [7]; 62 g ai/ha
  Plant response rating: 40
dayflower, VA [7]; 125 g ai/ha
  Plant response rating: 50
dayflower, VA [7]; 250 g ai/ha
  Plant response rating: 50
beggarticks; 16 g ai/ha
  Plant response rating: 20
beggarticks; 31 g ai/ha
  Plant response rating: 40
beggarticks; 62 g ai/ha
  Plant response rating: 40
beggarticks; 125 g ai/ha
  Plant response rating: 50
beggarticks; 250 g ai/ha
  Plant response rating: 60

## COc1nc(-c2ccc(Cl)cc2)nn1Cc1ccnc(C(F)(F)F)c1 [Compound 28]
Soybean [5]; 31 g ai/ha
  Plant response rating: 70
Soybean [5]; 62 g ai/ha
  Plant response rating: 75
Soybean [5]; 125 g ai/ha
  Plant response rating: 95
Soybean [5]; 250 g ai/ha
  Plant response rating: 80
Ragweed [8]; 31 g ai/ha
  Plant response rating: 40
Ragweed [8]; 62 g ai/ha
  Plant response rating: 40
Ragweed [8]; 125 g ai/ha
  Plant response rating: 40
Ragweed [8]; 250 g ai/ha
  Plant response rating: 50
Arrowleaf sida [6]; 31 g ai/ha
  Plant response rating: 70
Arrowleaf sida [6]; 62 g ai/ha
  Plant response rating: 80
Arrowleaf sida [6]; 125 g ai/ha
  Plant response rating: 80
Arrowleaf sida [6]; 250 g ai/ha
  Plant response rating: 75
dayflower, VA [7]; 31 g ai/ha
  Plant response rating: 60
dayflower, VA [7]; 62 g ai/ha
  Plant response rating: 70
dayflower, VA [7]; 125 g ai/ha
  Plant response rating: 70
dayflower, VA [7]; 250 g ai/ha
  Plant response rating: 70
beggarticks; 31 g ai/ha
  Plant response rating: 50
beggarticks; 62 g ai/ha
  Plant response rating: 60
beggarticks; 125 g ai/ha
  Plant response rating: 50
beggarticks; 250 g ai/ha
  Plant response rating: 60
